Laboratory results taken from patent publication US12398154B2, “Azaquinazoline pan-KRas inhibitors” (Mirati Therapeutics, Inc., priority 2020, dated 2025).

Tests used:
[1] = molecular target: T1, KRas G13D (Homo sapiens, UniProt P01116, G13D); experiment: KRas binding assay (TR-FRET displacement);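 note: One-hour room temperature incubation before TR-FRET reading, IC50 from a four-parameter curve fit to percent-of-control data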
T1 construct: Biotinylated KRas (corresponding to amino acids 1-169, produced at Accelegan Inc.); biotin (biotinylated); purchased Accelegan Inc
T1 sequence (P01116 1-169 isoform P01116-2 G13D): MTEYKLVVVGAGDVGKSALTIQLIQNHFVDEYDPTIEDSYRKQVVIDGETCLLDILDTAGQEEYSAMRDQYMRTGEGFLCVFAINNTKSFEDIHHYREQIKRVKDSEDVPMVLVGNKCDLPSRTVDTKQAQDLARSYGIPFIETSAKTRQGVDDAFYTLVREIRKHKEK
Method: (§1) The ability of a compound to bind to KRas was measured using a TR-FRET displacement assay. […] After a 60-minute incubation at room temperature, the reaction was measured using a BMG LABTECH CLARIO star Plus via TR-FRET. […] The POC values were fit to a 4-parameter IC50 equation and the IC50 value reported.

[2] = molecular target: T2, KRas Q61H (Homo sapiens, UniProt P01116, Q61H); experiment: KRas binding assay (TR-FRET displacement);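 note: TR-FRET signal read after one hour at room temperature, IC50 derived by four-parameter fitting of percent-of-control values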
T2 construct: Biotinylated KRas (corresponding to amino acids 1-169, produced at Accelegan Inc.); biotin (biotinylated); purchased Accelegan Inc
T2 sequence (P01116 1-169 isoform P01116-2 Q61H): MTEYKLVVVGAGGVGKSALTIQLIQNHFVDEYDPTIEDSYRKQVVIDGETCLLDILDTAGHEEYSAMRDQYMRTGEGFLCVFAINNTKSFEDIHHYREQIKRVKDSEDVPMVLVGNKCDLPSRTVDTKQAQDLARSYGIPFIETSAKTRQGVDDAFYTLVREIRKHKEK
Method: as §1

[3] = molecular target: KRas G12D (Homo sapiens, UniProt P01116, G12D); experiment: biochemical;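 note: TR-FRET displacement binding assay on KRas, read after a one-hour incubation at room temperature, IC50 fitted from percent-of-control values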
Sequence of KRas G12D (P01116 1-169 isoform P01116-2 G12D): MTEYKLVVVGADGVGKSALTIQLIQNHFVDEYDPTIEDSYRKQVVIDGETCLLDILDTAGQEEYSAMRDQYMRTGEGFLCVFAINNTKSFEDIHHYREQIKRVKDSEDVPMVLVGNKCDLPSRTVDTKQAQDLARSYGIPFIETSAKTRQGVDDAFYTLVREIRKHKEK
Method: as §1

[4] = molecular target: KRas G12V (Homo sapiens, UniProt P01116, G12V); experiment: biochemical;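 note: KRas binding measured by TR-FRET displacement at room temperature, IC50 fitted from percent of control values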
Sequence of KRas G12V (P01116 1-169 isoform P01116-2 G12V): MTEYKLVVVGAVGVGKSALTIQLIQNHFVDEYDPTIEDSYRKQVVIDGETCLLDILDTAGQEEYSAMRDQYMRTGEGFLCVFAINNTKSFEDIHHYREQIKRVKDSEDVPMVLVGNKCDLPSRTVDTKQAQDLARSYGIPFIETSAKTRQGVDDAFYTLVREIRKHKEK
Method: as §1

[5] = molecular target: KRas G12R (Homo sapiens, UniProt P01116, G12R); experiment: biochemical;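 note: TR-FRET displacement assay of compound binding to KRas, read after one hour at room temperature, potency from a four-parameter fit of percent-of-control values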
Sequence of KRas G12R (P01116 1-169 isoform P01116-2 G12R): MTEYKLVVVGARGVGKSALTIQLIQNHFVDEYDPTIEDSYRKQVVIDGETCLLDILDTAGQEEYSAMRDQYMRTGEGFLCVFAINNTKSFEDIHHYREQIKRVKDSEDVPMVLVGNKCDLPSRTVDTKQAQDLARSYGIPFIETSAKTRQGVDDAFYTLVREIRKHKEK
Method: as §1

[6] = molecular target: KRas G12A (Homo sapiens, UniProt P01116, G12A); experiment: biochemical;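 note: binding to KRas measured by TR-FRET displacement after one hour at room temperature, IC50 from a four-parameter fit of percent-of-control values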
Sequence of KRas G12A (P01116 1-169 isoform P01116-2 G12A): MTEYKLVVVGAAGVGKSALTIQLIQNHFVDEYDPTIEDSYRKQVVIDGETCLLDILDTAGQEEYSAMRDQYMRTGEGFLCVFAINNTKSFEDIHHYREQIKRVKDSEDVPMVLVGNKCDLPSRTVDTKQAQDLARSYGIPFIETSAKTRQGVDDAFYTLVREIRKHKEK
Method: as §1

[7] = molecular target: KRas G12S (Homo sapiens, UniProt P01116, G12S); experiment: biochemical;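 note: TR-FRET displacement binding to KRas, read after one hour incubation at room temperature, IC50 from four-parameter fit of percent of control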
Sequence of KRas G12S (P01116 1-169 isoform P01116-2 G12S): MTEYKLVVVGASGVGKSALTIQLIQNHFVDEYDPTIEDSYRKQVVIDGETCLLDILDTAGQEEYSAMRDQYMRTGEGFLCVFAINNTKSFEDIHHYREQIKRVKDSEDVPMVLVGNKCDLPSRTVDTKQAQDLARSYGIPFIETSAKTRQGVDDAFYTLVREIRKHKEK
Method: as §1

[8] = molecular target: KRas G12C (Homo sapiens, UniProt P01116, G12C); experiment: biochemical;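 note: binding to KRas assessed by TR-FRET displacement after one hour incubation at room temperature, potency fitted from percent-of-control values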
Sequence of KRas G12C (P01116 1-169 isoform P01116-2 G12C): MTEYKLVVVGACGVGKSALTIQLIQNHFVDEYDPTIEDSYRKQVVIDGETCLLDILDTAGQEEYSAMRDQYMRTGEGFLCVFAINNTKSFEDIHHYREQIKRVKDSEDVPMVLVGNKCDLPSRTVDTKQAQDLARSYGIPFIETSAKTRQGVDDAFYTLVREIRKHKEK
Method: as §1

[9] = molecular target: KRas WT (Homo sapiens, UniProt P01116); experiment: biochemical;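 note: binding to KRas read as TR-FRET displacement after a one-hour room-temperature incubation, IC50 derived from percent-of-control values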
Sequence of KRas WT (P01116 1-169 isoform P01116-2): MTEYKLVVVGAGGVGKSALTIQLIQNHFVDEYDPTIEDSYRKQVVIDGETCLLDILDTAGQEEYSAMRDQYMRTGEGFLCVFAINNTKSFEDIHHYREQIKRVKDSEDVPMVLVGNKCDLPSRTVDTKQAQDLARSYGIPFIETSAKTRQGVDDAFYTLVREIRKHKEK
Method: as §1

Row | IC50 [1] [nM] | IC50 [2] [nM] | IC50 [3] [µM] | IC50 [4] [µM] | IC50 [5] [µM] | IC50 [6] [µM] | IC50 [7] [µM] | IC50 [8] [µM] | IC50 [9] [µM] | Structure (SMILES)
1 | 11600 | 19500 | 64.4 | 5.16 | 7.57 | 8.99 | 11.3 | 9.88 | 14 | O=C1NCC2(CCN(c3nc(OCC45CCCN4CCC5)nc4c(F)c(-c5cccc6cccc(F)c56)ncc34)CC2)N1 [Example 217, 8-(8-fluoro-7-(8-fluoronaphthalen-1-yl)-2-((tetrahydro-1H-pyrrolizin-7a(5H)-yl)methoxy)pyrido[4,3-d]pyrimidin-4-yl)-1,3,8-triazaspiro[4.5]decan-2-one]
2 | ≥ 100000 | 84800 | 65.9 | 2.84 | 6.53 | 14.8 | 23.2 | 6.88 | 28.9 | Fc1c(-c2cccc3cccc(F)c23)ncc2c(Nc3ccc4cn[nH]c4c3)nc(OCC34CCCN3CCC4)nc12 [Example 218, 8-fluoro-7-(8-fluoronaphthalen-1-yl)-N-(1H-indazol-6-yl)-2-((tetrahydro-1H-pyrrolizin-7a(5H)-yl)methoxy)pyrido[4,3-d]pyrimidin-4-amine]
3 | 308 | 231 | 0.586 | 0.556 | 0.191 | 0.271 | 0.313 | 0.498 | 0.284 | NS(=O)(=O)CC1CCCN(c2nc(OCC34CCCN3CCC4)nc3c(F)c(-c4cccc5cccc(F)c45)ncc23)C1 (stereo not drawn) [Example 221, 1-(1-(8-fluoro-7-(8-fluoronaphthalen-1-yl)-2-((tetrahydro-1H-pyrrolizin-7a(5H)-yl)methoxy)pyrido[4,3-d]pyrimidin-4-yl)piperidin-3-yl)methanesulfonamide]
4 | 6870 | 8650 | 21.1 | 0.93 | 0.665 | 1.36 | 1.8 | 1.19 | 5.6 | CN(Cc1c[nH]c2ncccc12)c1nc(OCC23CCCN2CCC3)nc2c(F)c(-c3cccc4cccc(F)c34)ncc12 [Example 223, N-((1H-pyrrolo[2,3-b]pyridin-3-yl)methyl)-8-fluoro-7-(8-fluoronaphthalen-1-yl)-N-methyl-2-((tetrahydro-1H-pyrrolizin-7a(5H)-yl)methoxy)pyrido[4,3-d]pyrimidin-4-amine]
5 | 61500 | 62300 | 97.9 | 24.6 | 8.68 | 52.1 | 31.6 | 29.6 | 49.4 | O=c1cc(CNc2nc(OCC34CCCN3CCC4)nc3c(F)c(-c4cccc5cccc(F)c45)ncc23)[nH][nH]1 [Example 231, 5-(((8-fluoro-7-(8-fluoronaphthalen-1-yl)-2-((hexahydro-1H-pyrrolizin-7a-yl)methoxy)pyrido[4,3-d]pyrimidin-4-yl)amino)methyl)-1H-pyrazol-3(2H)-one]

The next lines start with the molecule.

Row | Structure (SMILES) | IC50 [1] [nM] | IC50 [2] [nM] | IC50 [3] [µM] | IC50 [4] [µM] | IC50 [5] [µM] | IC50 [6] [µM] | IC50 [7] [µM] | IC50 [8] [µM] | IC50 [9] [µM]
6 | Fc1c(-c2cccc3cccc(F)c23)ncc2c(NCCc3cnoc3)nc(OCC34CCCN3CCC4)nc12 [Example 219, 8-fluoro-7-(8-fluoronaphthalen-1-yl)-N-(2-(isoxazol-4-yl)ethyl)-2-((tetrahydro-1H-pyrrolizin-7a(5H)-yl)methoxy)pyrido[4,3-d]pyrimidin-4-amine] | 18100 | 20200 | 65.3 | 8.83 | 4.78 | 16.2 | 13.1 | 5.65 | 15
7 | Fc1c(-c2cccc3cccc(F)c23)ncc2c(N3CCCC4(COC4)C3)nc(OCC34CCCN3CCC4)nc12 [Example 220, 6-(8-fluoro-7-(8-fluoronaphthalen-1-yl)-2-((tetrahydro-1H-pyrrolizin-7a(5H)-yl)methoxy)pyrido[4,3-d]pyrimidin-4-yl)-2-oxa-6-azaspiro[3.5]nonane] | 6700 | 7470 | 10.8 | 6.07 | 8.67 | 6.75 | 6.31 | 8.25 | 5.57
8 | Fc1c(-c2cccc3cccc(F)c23)ncc2c(NCc3cnn4c3OCCC4)nc(OCC34CCCN3CCC4)nc12 [Example 222, N-((6,7-dihydro-5H-pyrazolo[5,1-b][1,3]oxazin-3-yl)methyl)-8-fluoro-7-(8-fluoronaphthalen-1-yl)-2-((tetrahydro-1H-pyrrolizin-7a(5H)-yl)methoxy)pyrido[4,3-d]pyrimidin-4-amine] | 70100 | 52900 | ≥ 100 | 18.2 | 31.2 | 17.8 | 26.9 | 8.98 | 35.9
9 | O=C1NC2(CCN(c3nc(OCC45CCCN4CCC5)nc4c(F)c(-c5cccc6cccc(F)c56)ncc34)CC2)CO1 [Example 224, 8-(8-fluoro-7-(8-fluoronaphthalen-1-yl)-2-((tetrahydro-1H-pyrrolizin-7a(5H)-yl)methoxy)pyrido[4,3-d]pyrimidin-4-yl)-3-oxa-1,8-diazaspiro[4.5]decan-2-one] | 4830 | 9670 | 64.8 | 8.48 | 4.02 | 8.45 | 7.11 | 11.7 | 6.28
10 | NC(=O)CCNc1nc(OCC23CCCN2CCC3)nc2c(F)c(-c3cccc4cccc(F)c34)ncc12 [Example 225, 3-((8-fluoro-7-(8-fluoronaphthalen-1-yl)-2-((hexahydro-1H-pyrrolizin-7a-yl)methoxy)pyrido[4,3-d]pyrimidin-4-yl)amino)propanamide] | 23500 | 26100 | 21.7 | 6.24 | 9.39 | 14.9 | 9.9 | 8.12 | 16.6
11 | O=C1NC(=O)C2CN(c3nc(OCC45CCCN4CCC5)nc4c(F)c(-c5cccc6cccc(F)c56)ncc34)CC12 (stereo not drawn) [Example 228, 5-(8-fluoro-7-(8-fluoronaphthalen-1-yl)-2-((hexahydro-1H-pyrrolizin-7a-yl)methoxy)pyrido[4,3-d]pyrimidin-4-yl)tetrahydropyrrolo[3,4-c]pyrrole-1,3(2H,3aH)-dione] | 465 | 822 | 0.147 | 0.148 | 0.224 | 1.21 | 0.202 | 1.02 | 2.7
12 | O=c1[nH][nH]cc1CNc1nc(OCC23CCCN2CCC3)nc2c(F)c(-c3cccc4cccc(F)c34)ncc12 [Example 230, 4-(((8-fluoro-7-(8-fluoronaphthalen-1-yl)-2-((hexahydro-1H-pyrrolizin-7a-yl)methoxy)pyrido[4,3-d]pyrimidin-4-yl)amino)methyl)-1H-pyrazol-3(2H)-one] | 35500 | 23300 | 38.8 | 7.99 | 9.85 | 11.3 | 19.7 | 10.6 | 28.4
13 | Fc1c(-c2cccc3cccc(F)c23)ncc2c(N3CCCC4(CCC4)C3)nc(OCC34CCCN3CCC4)nc12 [Example 232, 8-fluoro-7-(8-fluoronaphthalen-1-yl)-2-((hexahydro-1H-pyrrolizin-7a-yl)methoxy)-4-(6-azaspiro[3.5]nonan-6-yl)pyrido[4,3-d]pyrimidine] | 18000 | 25900 | 11.9 | 7.78 | 9.99 | 17.3 | 19.4 | 13.6 | 19.2
14 | OC1CCC12CCCN(c1nc(OCC34CCCN3CCC4)nc3c(F)c(-c4cccc5cccc(F)c45)ncc13)C2 (stereo not drawn) [Example 233, 6-(8-fluoro-7-(8-fluoronaphthalen-1-yl)-2-((tetrahydro-1H-pyrrolizin-7a(5H)-yl)methoxy)pyrido[4,3-d]pyrimidin-4-yl)-6-azaspiro[3.5]nonan-1-ol] | 7380 | 5350 | 6.7 | 4.64 | 5.56 | 2.65 | 7.45 | 6.15 | 4.3
15 | Fc1c(-c2cccc3cccc(F)c23)ncc2c(N3CCCC4(CC(F)C4)C3)nc(OCC34CCCN3CCC4)nc12 (stereo not drawn) [Example 234, 8-fluoro-4-(2-fluoro-6-azaspiro[3.5]nonan-6-yl)-7-(8-fluoronaphthalen-1-yl)-2-((hexahydro-1H-pyrrolizin-7a-yl)methoxy)pyrido[4,3-d]pyrimidine] | 1980 | 2590 | 2.02 | 1.6 | 1.85 | 2.3 | 1.76 | 1.62 | 2.64
16 | OC1CC2(CCCN(c3nc(OCC45CCCN4CCC5)nc4c(F)c(-c5cccc6cccc(F)c56)ncc34)C2)C1 (stereo not drawn) [Example 235, 6-(8-fluoro-7-(8-fluoronaphthalen-1-yl)-2-((hexahydro-1H-pyrrolizin-7a-yl)methoxy)pyrido[4,3-d]pyrimidin-4-yl)-6-azaspiro[3.5]nonan-2-ol] | 2710 | 3360 | 2.66 | 1.7 | 2.87 | 2.15 | 2.01 | 1.65 | 2.65
